Results from ChEMBL document CHEMBL1201862, “PubChem BioAssay data set” (2004).
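Method: 48-hour compound exposure of cells in 96-well plates, five concentrations, linear interpolation of endpoints. GI50 = concentration required for 50% inhibition of growth.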 Calls of active or inactive are those of the source. No stated cut-off is given here; in the data, active = GI50 up to about 1.1 µM and inactive = higher.

Legend:
Test in all cases: NCI tumour cell line growth inhibition, 48 h
DLD-1 = tested on: DLD-1
DMS-114 = tested on: DMS-114
DMS-273 = tested on: DMS-273
HOP-18 = tested on: HOP-18
KM-20L2 = tested on: KM-20L2
M19-MEL = tested on: M19-MEL
SNB-78 = tested on: SNB-78
XF498 = tested on: XF498
RXF 631 = tested on: RXF 631

Question: CN(C)[C@@H]1C(O)=C(C(=O)NCNCCCC(=O)O)C(=O)[C@@]2(O)C(O)=C3C(=O)c4c(O)cccc4[C@@](C)(O)[C@H]3C[C@@H]12 was tested. Which GI50 (DLD-1) did it give?
Answer: The GI50 was > 100 µM (inactive).

Question: And the GI50 (DMS-114)?
Answer: The GI50 was > 100 µM (inactive).

Question: And the GI50 (DMS-273)?
Answer: Its GI50 is > 100 µM (inactive).

Question: What about the GI50 (HOP-18) of the same molecule?
Answer: Its GI50 is > 100 µM (inactive).

Question: What about the GI50 (KM-20L2) of the same molecule?
Answer: The GI50 was > 100 µM (inactive).

Question: What about the GI50 (M19-MEL) of the same molecule?
Answer: Its GI50 is > 100 µM (inactive).

Question: And the GI50 (SNB-78)?
Answer: Its GI50 is > 100 µM (inactive).

Question: And the GI50 (XF498)?
Answer: The GI50 was > 100 µM (inactive).

Question: What does the source list for CNc1cccc(-c2cc(O)c3cc4c(cc3n2)OCO4)c1?
Answer: GI50 (DLD-1): 0.181 µM (active); GI50 (DMS-114): 0.723 µM (active); GI50 (DMS-273): 0.35 µM (active); GI50 (HOP-18): 0.881 µM (active); GI50 (M19-MEL): 0.445 µM (active); GI50 (SNB-78): 0.318 µM (active); GI50 (XF498): 3.82 µM (inactive)

Question: For COc1ccc(OC)c2c3c(ccc12)C(c1ccccc1)OC3=O (configuration not stated), which GI50 (DLD-1) is on record?
Answer: The GI50 was 63.5 µM (inactive).

Question: And the GI50 (DMS-114)?
Answer: Its GI50 is 51.8 µM (inactive).

Question: And the GI50 (DMS-273)?
Answer: The GI50 was 31.9 µM (inactive).

Question: What about the GI50 (HOP-18) of the same molecule?
Answer: The GI50 was 52.1 µM (inactive).

Question: And the GI50 (KM-20L2)?
Answer: Its GI50 is > 100 µM (inactive).

Question: What about the GI50 (M19-MEL) of the same molecule?
Answer: The GI50 was 45.7 µM (inactive).

Question: And the GI50 (SNB-78)?
Answer: Its GI50 is 12.8 µM (inactive).

Question: Which GI50 (DLD-1) does the source give for COc1ccc(-c2onc(-c3c(C)cc(C)cc3C)c2C2=NCCCN2)cc1 here?
Answer: Its GI50 is 78.3 µM (inactive).

Question: And the GI50 (HOP-18)?
Answer: The GI50 was 2.1 µM (inactive).

Question: And the GI50 (KM-20L2)?
Answer: Its GI50 is 33.4 µM (inactive).

Question: What about the GI50 (M19-MEL) of the same molecule?
Answer: Its GI50 is > 100 µM (inactive).

Question: And the GI50 (RXF 631)?
Answer: The GI50 was 44.4 µM (inactive).

Question: What about the GI50 (SNB-78) of the same molecule?
Answer: The GI50 was 35.1 µM (inactive).

Question: What about the GI50 (XF498) of the same molecule?
Answer: The GI50 was 60 µM (inactive).

Question: With Cn1ccc2c(C(=O)c3ccccc3)cccc2c1=O as the molecule, how does the GI50 (DLD-1) read?
Answer: Its GI50 is 44.6 µM (inactive).

Question: And the GI50 (DMS-114)?
Answer: The GI50 was 38.5 µM (inactive).

Question: What about the GI50 (DMS-273) of the same molecule?
Answer: Its GI50 is 34.1 µM (inactive).

Question: And the GI50 (M19-MEL)?
Answer: The GI50 was 74 µM (inactive).

Question: What about the GI50 (XF498) of the same molecule?
Answer: The GI50 was 47.1 µM (inactive).

Question: COc1cc(C(C)c2cc3c(cc2OCCCCCOc2cc4c(cc2C(C)c2cc(OC)c(OC)c(OC)c2)OCO4)OCO3)cc(OC)c1OC (configuration not stated) was tested. Which GI50 (DLD-1) did it give?
Answer: Its GI50 is > 100 µM (inactive).

Question: What about the GI50 (DMS-273) of the same molecule?
Answer: The GI50 was > 100 µM (inactive).

Question: What about the GI50 (KM-20L2) of the same molecule?
Answer: Its GI50 is > 100 µM (inactive).

Question: What about the GI50 (M19-MEL) of the same molecule?
Answer: Its GI50 is > 100 µM (inactive).

Question: For COc1ccc(NC(=O)CCc2cc(C(C)(C)C)[nH]n2)cc1, which GI50 (DMS-273) is on record?
Answer: Its GI50 is > 100 µM (inactive).

Question: What about the GI50 (HOP-18) of the same molecule?
Answer: The GI50 was > 100 µM (inactive).

Question: What about the GI50 (KM-20L2) of the same molecule?
Answer: Its GI50 is > 100 µM (inactive).

Question: What about the GI50 (M19-MEL) of the same molecule?
Answer: Its GI50 is > 100 µM (inactive).

Question: And the GI50 (RXF 631)?
Answer: The GI50 was > 100 µM (inactive).

Question: And the GI50 (SNB-78)?
Answer: The GI50 was > 100 µM (inactive).

Question: What about the GI50 (XF498) of the same molecule?
Answer: The GI50 was > 100 µM (inactive).

Question: For COc1ccc(-c2nc(N)nc(-c3cc(C)ccc3O)c2Cl)cc1, which GI50 (DLD-1) is on record?
Answer: The GI50 was 39.9 µM (inactive).

Question: And the GI50 (DMS-114)?
Answer: The GI50 was 48.2 µM (inactive).

Question: And the GI50 (DMS-273)?
Answer: Its GI50 is 43.7 µM (inactive).

Question: And the GI50 (HOP-18)?
Answer: The GI50 was > 100 µM (inactive).

Question: And the GI50 (KM-20L2)?
Answer: Its GI50 is > 100 µM (inactive).

Question: And the GI50 (M19-MEL)?
Answer: The GI50 was 93.3 µM (inactive).

Question: And the GI50 (RXF 631)?
Answer: Its GI50 is > 100 µM (inactive).

Question: What about the GI50 (SNB-78) of the same molecule?
Answer: The GI50 was 24.3 µM (inactive).

Question: And the GI50 (XF498)?
Answer: The GI50 was 35.6 µM (inactive).

Question: What does the source list for O=C1OC(c2cccc(C(F)(F)F)c2)c2ccc3ccccc3c21 (configuration not stated)?
Answer: GI50 (DLD-1): 4.79 µM (inactive); GI50 (DMS-114): 5.57 µM (inactive); GI50 (DMS-273): > 10 µM (inactive); GI50 (HOP-18): > 10 µM (inactive); GI50 (KM-20L2): > 10 µM (inactive); GI50 (M19-MEL): > 10 µM (inactive); GI50 (RXF 631): 3.42 µM (inactive); GI50 (SNB-78): > 100 µM (inactive); GI50 (XF498): > 100 µM (inactive)

Question: With C=C1CC2(OC1=O)c1ccccc1C=Cc1ccccc12 as the molecule, how does the GI50 (DLD-1) read?
Answer: Its GI50 is 1.87 µM (inactive).

Question: And the GI50 (DMS-114)?
Answer: The GI50 was 7.76 µM (inactive).

Question: What about the GI50 (DMS-273) of the same molecule?
Answer: The GI50 was 14.8 µM (inactive).

Question: And the GI50 (HOP-18)?
Answer: Its GI50 is 14.3 µM (inactive).

Question: What about the GI50 (KM-20L2) of the same molecule?
Answer: The GI50 was 8.13 µM (inactive).

Question: And the GI50 (M19-MEL)?
Answer: The GI50 was 5.47 µM (inactive).

Question: What about the GI50 (RXF 631) of the same molecule?
Answer: Its GI50 is 9.2 µM (inactive).

Question: What about the GI50 (SNB-78) of the same molecule?
Answer: The GI50 was 3.08 µM (inactive).

Question: What about the GI50 (XF498) of the same molecule?
Answer: Its GI50 is 13.6 µM (inactive).

Question: For O=C(Nc1cc(Cl)c(Cl)cc1Cl)C(=O)C1C=CCS1(=O)=O (configuration not stated), which GI50 (DLD-1) is on record?
Answer: Its GI50 is > 100 µM (inactive).

Question: What about the GI50 (DMS-114) of the same molecule?
Answer: The GI50 was > 100 µM (inactive).

Question: What about the GI50 (DMS-273) of the same molecule?
Answer: Its GI50 is > 100 µM (inactive).

Question: And the GI50 (HOP-18)?
Answer: Its GI50 is > 100 µM (inactive).

Question: What about the GI50 (KM-20L2) of the same molecule?
Answer: Its GI50 is > 100 µM (inactive).

Question: And the GI50 (M19-MEL)?
Answer: Its GI50 is > 100 µM (inactive).

Question: What about the GI50 (SNB-78) of the same molecule?
Answer: Its GI50 is 11.2 µM (inactive).

Question: NC(=S)N/C=C1\C(=O)Oc2ccccc2C1=O was tested. Which GI50 (DLD-1) did it give?
Answer: Its GI50 is 31.2 µM (inactive).

Question: And the GI50 (DMS-114)?
Answer: Its GI50 is 48.4 µM (inactive).

Question: What about the GI50 (DMS-273) of the same molecule?
Answer: Its GI50 is > 100 µM (inactive).

Question: And the GI50 (HOP-18)?
Answer: The GI50 was 39.2 µM (inactive).

Question: And the GI50 (KM-20L2)?
Answer: Its GI50 is > 100 µM (inactive).

Question: And the GI50 (M19-MEL)?
Answer: Its GI50 is > 100 µM (inactive).

Question: And the GI50 (SNB-78)?
Answer: The GI50 was 94.2 µM (inactive).

Question: And the GI50 (XF498)?
Answer: Its GI50 is 32.3 µM (inactive).
